Data: patent US4118561A, “7-(Substituted)-7H-pyrrolo[3,2-f]quinazoline-1,3-diamines” (priority 1977, dated 1978)
Values after ≈ are worked out from the molar mass of the structure shown. Where two headings read alike, the source gives them in different places.

Tests used:
S. paratyphi 11737 = assay: In vitro antibacterial activity (MIC), S. paratyphi 11737; format: cell-based; conditions: Salmonella enterica, 18 h
[1] = system: lymphocytic leukemia P-388; assay: Activity in mice against lymphocytic leukemia P-388; format: in vivo; conditions: Mus musculus, P388, ip, mice, I.P., read-out: T/C
E. coli 9637 = assay: In vitro antibacterial activity (MIC), E. coli 9637; conditions: Escherichia coli, 9637, 18 h
S. aureus Smith = assay: In vitro antibacterial activity (MIC), S. aureus Smith; conditions: Staphylococcus aureus, 18 h
S. aureus 53-180 = assay: In vitro antibacterial activity (MIC), S. aureus 53-180; conditions: Staphylococcus aureus, 53180, 18 h
P. vulgaris 6896 = assay: In vitro antibacterial activity (MIC), P. vulgaris 6896; conditions: Proteus vulgaris, 6896, 18 h
N. catarrhalis 8193 = assay: In vitro antibacterial activity (MIC), N. catarrhalis 8193; conditions: 18 h
K. pneumoniae 10031 = assay: In vitro antibacterial activity (MIC), K. pneumoniae 10031; conditions: Klebsiella pneumoniae, 10031, 18 h
[2] = Antimalarial blood schizonticidal test in mice; format: in vivo, Plasmodium berghei (infected ICR/HA Swiss mice); set-up: ΔMST (increase in mean survival time): unit: days; conditions: mouse, in vivo, sc, single dose, read-out: Highest Non-Lethal Dose
Source text: (§1) In addition, the invention provides compounds which have antimalarial activity in vivo as evidenced by a standard blood schizonticidal test in mice infected with Plasmodium berghei KBG 173.
(§2) Utilizing young ICR/HA Swiss mice and a standard inoculum of Plasmodium berghei KBG 173, it is possible to produce a uniform disease fatal to 100% of untreated animals within 6 to 8 days with a mean survival time of 6.2 days. Test animals weigh from 18 to 22 grams but weight variations in any given experimental or control group are confined to 2-3 grams. All animals in any given test are approximately of the same age. Animals on test are housed in metal-topped plastic cages, given a standard laboratory diet and water ad libitum.
(§3) Test animals receive an intraperitoneal injection of 0.5 ml. of 1:100 dilution of heparinized heart's blood with a minimum of 90% parasitized cells (4 × 10^7 cells), drawn from donor mice infected one week earlier with Plasmodium berghei. The donor strain is maintained by weekly passages in separate groups of mice inoculated with a 0.5 ml. of 1:500 dilution of heparinized heart's blood.
(§4) Test compounds are administered after dissolution or suspension in peanut oil. A single dose is given subcutaneously 72 hours after the mice are infected with Plasmodium berghei. At this time a 10-15 percent parasitemia has developed; the disease is well established but has not produced sufficient debility to alter the response of the host to toxic effects of the drug on test. Since treatment is withheld for three days to permit the infection to become well established and death occurs in untreated controls within 6-8 days, it is felt that this system presents a candidate compound with the maximum challenge. In order to check factors such as changes in the infectivity of Plasmodium berghei or in the susceptibility of the host or to detect technical errors, a group of infected animals treated with pyrimethamine at dose levels producing definite increases in survival time is included in a positive control in every experiment.
(§5) In each experiment test compounds are administered in graded dosages. […] However, if an active drug is toxic for the host, its toxicity may become a limiting factor; continued increases in dose levels also increase the toxic effects and may result in the diminution of survival times. Deaths prior to the sixth day, when untreated controls begin to die, are regarded as nonparasitic and become the basis for toxicity evaluations. […] In calculating mean survival time, toxic deaths and 60-day survivors are not included.
(§6) Compounds are considered active which produce a cure in at least one test animal or which produce significant increases in mean survival times of the treated animals as compared with the mean survival times of untreated controls, provided that no drug related deaths (toxicity) are noted at the active dose.

[3] = system: Plasmodium berghei KBG 173; assay: Antimalarial blood schizonticidal test in mice; format: in vivo, Plasmodium berghei (infected ICR/HA Swiss mice); set-up: ΔMST (increase in mean survival time): unit: days; conditions: for ED100 / minimal effective dose: Plasmodium berghei, sc, single dose; for ED100: read-out: Lowest Dose Curing All Mice; for minimal effective dose: read-out: Min. Curing Dose; for Cure/Treat at Min. Curing Dose: at the Min. Curing Dose
Source text: as §1, §2, §3, §4, §5, §6

[4] = infected mice, highest dose with no deaths for any reason
[5] = this is the highest dose tested
[6] = 336 h, s.c., alive on day 14 considered cured, no 60-day data

Compound | MIC (S. paratyphi 11737) | MIC (E. coli 9637) | MIC (S. aureus Smith) | MIC (S. aureus 53-180) | MIC (P. vulgaris 6896) | MIC (N. catarrhalis 8193) | MIC (K. pneumoniae 10031) | MTD [2, 4] | ED100 ([3]; 1440 h, s.c., 60-day survivors) | minimal effective dose ([3]; 1440 h, s.c., 60-day survivors) | Cure/Treat at Min. Curing Dose ([3]; s.c., 60-day survivors) | ΔMST (increase in mean survival time) ([3]; s.c., dose 5 mg. per kg.) | also measured
CC(C)(C)c1ccc(Cn2ccc3c4c(N)nc(N)nc4ccc32)cc1 [Example 30] | > 250 mg/L | 250 mg/L (≈ 724 µM) | 7.81 mg/L (≈ 22.6 µM) | 3.9 mg/L (≈ 11.3 µM) | > 250 mg/L | 0.976 mg/L (≈ 2.83 µM) | 3.9 mg/L (≈ 11.3 µM) |  |  |  |  |  | response vs control in vivo at 5 mg/kg ([1]; 5 mg/kg): 125%
Nc1nc(N)c2c(ccc3c2ccn3Cc2cccnc2)n1 [Example 44] | 0.488 mg/L (≈ 1.68 µM) | 0.488 mg/L (≈ 1.68 µM) | 7.81 mg/L (≈ 26.9 µM) | 0.976 mg/L (≈ 3.36 µM) | 7.81 mg/L (≈ 26.9 µM) | < 0.0009 mg/L | 0.122 mg/L (≈ 0.42 µM) | 160 mg/kg | 160 mg/kg | 80 mg/kg | 3/5 |  | ΔMST (increase in mean survival time) ([3]; s.c., dose 40 mg. per kg.): 8.3
Nc1nc(N)c2c(ccc3c2ccn3Cc2ccncc2)n1 [Example 45] | 0.488 mg/L (≈ 1.68 µM) | 0.244 mg/L (≈ 0.84 µM) | 0.122 mg/L (≈ 0.42 µM) | 0.122 mg/L (≈ 0.42 µM) | 0.488 mg/L (≈ 1.68 µM) | 0.0038 mg/L (≈ 0.0131 µM) | 0.122 mg/L (≈ 0.42 µM) |  |  | 80 mg/kg | 3/5 |  | ΔMST (increase in mean survival time) ([3]; s.c., dose 40 mg. per kg.): 9.7; response vs control in vivo at 15 mg/kg ([1]; 15 mg/kg): 142%
Nc1nc(N)c2c(ccc3c2ccn3Cc2cccc3ccccc23)n1 [Example 47] | 62.5 mg/L (≈ 184 µM) | 15.6 mg/L (≈ 46 µM) | 3.9 mg/L (≈ 11.5 µM) | 0.976 mg/L (≈ 2.88 µM) | 31.3 mg/L (≈ 92.2 µM) | 0.0019 mg/L (≈ 0.0056 µM) | 0.976 mg/L (≈ 2.88 µM) | 80 mg/kg | 20 mg/kg | 5 mg/kg | 2/5 | 9.2 | 
Nc1nc(N)c2c(ccc3c2ccn3Cc2ccc3ccccc3c2)n1 [Example 48] | > 250 mg/L | 250 mg/L (≈ 737 µM) | 125 mg/L (≈ 368 µM) | 125 mg/L (≈ 368 µM) | > 250 mg/L | 0.244 mg/L (≈ 0.719 µM) | 7.81 mg/L (≈ 23 µM) | 1160 mg/kg | 40 mg/kg | 20 mg/kg | 4/5 | 7.3 | 
Cc1ccc2ccccc2c1Cn1ccc2c3c(N)nc(N)nc3ccc21 [Example 49] | > 250 mg/L | > 250 mg/L | 125 mg/L (≈ 354 µM) | 125 mg/L (≈ 354 µM) | > 250 mg/L | 0.122 mg/L (≈ 0.345 µM) | 15.6 mg/L (≈ 44.1 µM) | 80 mg/kg | 20 mg/kg |  | 5/5 |  | minimal effective dose ([3]; this is the lowest dose tested): 20 mg/kg
Nc1nc(N)c2c(ccc3c2ccn3Cc2cccc3cccnc23)n1 [Example 51] | 1.95 mg/L (≈ 5.73 µM) | 0.244 mg/L (≈ 0.717 µM) | 0.244 mg/L (≈ 0.717 µM) | 0.122 mg/L (≈ 0.358 µM) | 7.81 mg/L (≈ 22.9 µM) | 0.0152 mg/L (≈ 0.0447 µM) | 0.122 mg/L (≈ 0.358 µM) | 40 mg/kg | 20 mg/kg | 5 mg/kg | 1/5 | 6.4 | 
CCCCCCCn1ccc2c3c(N)nc(N)nc3ccc21 [Example 53] | 62.5 mg/L (≈ 210 µM) | 31.3 mg/L (≈ 105 µM) | 31.3 mg/L (≈ 105 µM) | 15.6 mg/L (≈ 52.5 µM) | 250 mg/L (≈ 841 µM) | 0.488 mg/L (≈ 1.64 µM) | 3.9 mg/L (≈ 13.1 µM) |  | 640 mg/kg | 320 mg/kg | 2/5 |  | MTD [2, 5]: 640 mg/kg; ΔMST (increase in mean survival time) ([3]; s.c., dose 160 mg. per kg.): 9.5
Nc1nc(N)c2c(ccc3c2ccn3CCCc2ccccc2)n1 [Example 56] | 250 mg/L (≈ 788 µM) | 250 mg/L (≈ 788 µM) | 250 mg/L (≈ 788 µM) | 250 mg/L (≈ 788 µM) | 250 mg/L (≈ 788 µM) | 250 mg/L (≈ 788 µM) | 250 mg/L (≈ 788 µM) |  | 320 mg/kg | 160 mg/kg | 3/5 |  | MTD [2, 5]: 640 mg/kg; ΔMST (increase in mean survival time) ([3]; s.c., dose 80 mg. per kg.): 10.7
CC(=O)c1ccc(Cn2ccc3c4c(N)nc(N)nc4ccc32)cc1 [Example 61, 7-[(4-Acetylphenyl)methyl]-7H-pyrrolo[3,2-f]-quinazoline-1,3-diamine] | 0.976 mg/L (≈ 2.95 µM) | 0.488 mg/L (≈ 1.47 µM) | 0.244 mg/L (≈ 0.736 µM) | 0.122 mg/L (≈ 0.368 µM) | 1.95 mg/L (≈ 5.88 µM) | 0.0076 mg/L (≈ 0.0229 µM) | 0.061 mg/L (≈ 0.184 µM) | 40 mg/kg | 20 mg/kg | 2.5 mg/kg | 4/5 | 12.0 | 
CS(=O)(=O)c1ccc(Cn2ccc3c4c(N)nc(N)nc4ccc32)cc1 [Example 63, 7-[(4-Methylsulfonylphenyl)methyl]-7H-pyrrolo[3,2-f]quinazoline-1,3-diamine] | 0.976 mg/L (≈ 2.66 µM) | 0.976 mg/L (≈ 2.66 µM) | 0.122 mg/L (≈ 0.332 µM) | 0.122 mg/L (≈ 0.332 µM) | 7.81 mg/L (≈ 21.3 µM) | 0.0152 mg/L (≈ 0.0414 µM) | 0.122 mg/L (≈ 0.332 µM) |  |  | 10 mg/kg | 1/5 | 6.5 | response vs control in vivo at 10 mg/kg ([1]; 10 mg/kg): 136%
Nc1nc(N)c2c(ccc3c2ccn3Cc2ccc(OC(F)(F)F)cc2)n1 [Example 64, 7-[(4-Trifluoromethoxyphenyl)methyl]-7H-pyrrolo[3,2-f]quinazoline-1,3-diamine] | 62.5 mg/L (≈ 167 µM) | 3.9 mg/L (≈ 10.4 µM) | 0.976 mg/L (≈ 2.61 µM) | 0.244 mg/L (≈ 0.654 µM) | 62.5 mg/L (≈ 167 µM) | 0.031 mg/L (≈ 0.083 µM) | 0.122 mg/L (≈ 0.327 µM) | 10 mg/kg | 10 mg/kg | 2.5 mg/kg | 2/5 |  | ΔMST (increase in mean survival time) ([3]; s.c., dose 1.25 mg. per kg.): 9.6
Nc1nc(N)c2c(ccc3c2ccn3-c2ccc([N+](=O)[O-])cc2)n1 [Example 77] | 62.5 mg/L (≈ 195 µM) | 7.81 mg/L (≈ 24.4 µM) | 3.9 mg/L (≈ 12.2 µM) | 3.9 mg/L (≈ 12.2 µM) | 250 mg/L (≈ 780 µM) | 0.031 mg/L (≈ 0.0968 µM) | 0.976 mg/L (≈ 3.05 µM) | 640 mg/kg | 640 mg/kg | 160 mg/kg | 5/5 |  | ΔMST (increase in mean survival time) ([3]; s.c., dose 40 mg. per kg.): 28.3
Cc1cc(-n2ccc3c4c(N)nc(N)nc4ccc32)ccc1[N+](=O)[O-] [Example 80] | > 250 mg/L | > 250 mg/L | 62.5 mg/L (≈ 187 µM) | 7.81 mg/L (≈ 23.4 µM) | > 250 mg/L | 0.0152 mg/L (≈ 0.0455 µM) | 0.976 mg/L (≈ 2.92 µM) | 640 mg/kg | 640 mg/kg | 640 mg/kg | 5/5 |  | ΔMST (increase in mean survival time) ([3]; s.c., dose 160 mg. per kg.): 13.9
Cc1ccc(C)c(Cn2c(C)cc3c4c(N)nc(N)nc4ccc32)c1 [Example 103] | > 250 mg/L | 250 mg/L (≈ 754 µM) | 31.3 mg/L (≈ 94.4 µM) | 7.81 mg/L (≈ 23.6 µM) | > 250 mg/L | 1.95 mg/L (≈ 5.88 µM) | 15.6 mg/L (≈ 47.1 µM) |  |  |  |  |  | MTD ([2]; alive on day 14 considered cured, no 60-day data): 80 mg/kg; ED100 [3, 6]: 5 mg/kg; minimal effective dose [3, 6]: 1.25 mg/kg; Cure/Treat at Min. Curing Dose ([3]; s.c., alive on day 14 considered cured): 1/5; ΔMST (increase in mean survival time) ([3]; s.c., dose 1.25 mg. per kg., alive on day 14 considered cured, no 60-day data): 6.8
